This note sets out measurements from ChEMBL document CHEMBL6127146, “Exploring the Polypharmacological Potential of PCI-27483: A Selective Inhibitor of Carbonic Anhydrases IX and XII” (ACS Med Chem Lett, 2024).

In the experiment the target is Carbonic anhydrase 3 (Homo sapiens, UniProt P07451).
Carbonic anhydrase 3, sequence (P07451 whole entry): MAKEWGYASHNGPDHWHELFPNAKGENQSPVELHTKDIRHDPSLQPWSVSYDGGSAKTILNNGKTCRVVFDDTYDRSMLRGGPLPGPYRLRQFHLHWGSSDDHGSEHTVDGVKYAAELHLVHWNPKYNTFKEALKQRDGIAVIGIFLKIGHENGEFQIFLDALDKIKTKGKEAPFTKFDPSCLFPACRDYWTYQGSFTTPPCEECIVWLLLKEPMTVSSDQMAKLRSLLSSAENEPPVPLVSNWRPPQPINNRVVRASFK

Description: Inhibition of human CA3 preincubated for 15 mins by phenol red dye based stopped flow CO2 hydration assay

Compound `N=C(N)c1ccc2nc(-c3cc(CC(=O)N[C@@H](CC(=O)O)C(=O)O)cc(-c4cc(S(N)(=O)=O)ccc4O)c3O)[nH]c2c1` [PCI-27483] gave a Ki greater than 100 µM.

The Ki is a dissociation constant, usually derived from enzyme kinetics or from competition with a known ligand. Higher therefore signals weaker binding.
